# Reference: ChEMBL document CHEMBL1201862, “PubChem BioAssay data set” (2004)
#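 Cultured in 96-well plates, cells were exposed to test compound for 48 hours across five concentrations. At the GI50, growth is halved.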 Active and inactive are the calls of the source. Rule as the data show it: active = GI50 up to about 1.1 µM and inactive = higher.
# Assays:
# Assay in all cases: NCI tumour cell line growth inhibition, 48 h
# [1] = test system: MDA-MB-435
# [2] = test system: MDA-MB-231
# [3] = test system: UACC-62
# [4] = test system: SK-MEL-28
# [5] = test system: SK-MEL-2
# [6] = test system: EKVX
# [7] = test system: A549
# [8] = test system: NCI-H23
# [9] = test system: NCI-H460
# [10] = test system: TK-10
# [11] = test system: RXF 393
# [12] = test system: MDA-N
# [13] = test system: SN12C
# [14] = test system: SF-295
# [15] = test system: CCRF-CEM
# [16] = test system: DU-145
# [17] = test system: KM12
# [18] = test system: SNB-19
# [19] = test system: SF-539
# [20] = test system: HL-60
SMILES,GI50 [1],GI50 [2],GI50 [3],GI50 [4],GI50 [5],GI50 [6],GI50 [7],GI50 [8],GI50 [9],GI50 [10],GI50 [11],GI50 [12],GI50 [13],GI50 [14],GI50 [15],GI50 [16],GI50 [17],GI50 [18],GI50 [19],GI50 [20]
CCN(CC)CCn1ncc2c(N)ncnc21,> 100 µM (inactive),> 100 µM (inactive),> 100 µM (inactive),> 100 µM (inactive),> 100 µM (inactive),> 100 µM (inactive),> 100 µM (inactive),> 100 µM (inactive),> 100 µM (inactive),> 100 µM (inactive),> 100 µM (inactive),> 100 µM (inactive),> 100 µM (inactive),> 100 µM (inactive),34.7 µM (inactive),> 100 µM (inactive),> 100 µM (inactive),> 100 µM (inactive),–,–
O=c1[nH]nc(Cc2ccccc2)n1/N=C/c1cccs1,> 100 µM (inactive),23.4 µM (inactive),36 µM (inactive),> 100 µM (inactive),> 100 µM (inactive),> 100 µM (inactive),> 100 µM (inactive),> 100 µM (inactive),> 100 µM (inactive),–,35.2 µM (inactive),> 100 µM (inactive),> 100 µM (inactive),> 100 µM (inactive),> 100 µM (inactive),> 100 µM (inactive),> 100 µM (inactive),> 100 µM (inactive),> 100 µM (inactive),–
Cc1cc(N(CCC#N)CCC#N)ccc1C(/N=N/c1ccc(C(=O)O)cc1)=N\NC(=O)c1ccccc1,3.94 µM (inactive),57.8 µM (inactive),39.8 µM (inactive),–,> 100 µM (inactive),> 100 µM (inactive),25.8 µM (inactive),17.7 µM (inactive),22.9 µM (inactive),> 100 µM (inactive),17.7 µM (inactive),4.31 µM (inactive),47.3 µM (inactive),23.9 µM (inactive),30.4 µM (inactive),71.4 µM (inactive),18.2 µM (inactive),50.8 µM (inactive),16.3 µM (inactive),–
COc1cc(OCc2ccc3nc(OC)c(OC)nc3c2)cc(OC)c1OC,> 10 µM (inactive),> 10 µM (inactive),> 10 µM (inactive),> 10 µM (inactive),–,> 10 µM (inactive),> 10 µM (inactive),> 10 µM (inactive),> 10 µM (inactive),> 10 µM (inactive),> 10 µM (inactive),> 10 µM (inactive),> 10 µM (inactive),> 10 µM (inactive),> 10 µM (inactive),> 10 µM (inactive),> 10 µM (inactive),> 10 µM (inactive),> 10 µM (inactive),> 10 µM (inactive)
Cc1ccccc1NC(=O)C(=O)Cc1cnc2ccccc2n1,> 100 µM (inactive),> 100 µM (inactive),> 100 µM (inactive),> 100 µM (inactive),> 100 µM (inactive),> 100 µM (inactive),> 100 µM (inactive),> 100 µM (inactive),> 100 µM (inactive),> 100 µM (inactive),–,> 100 µM (inactive),> 100 µM (inactive),> 100 µM (inactive),69.8 µM (inactive),> 100 µM (inactive),> 100 µM (inactive),> 100 µM (inactive),> 100 µM (inactive),> 100 µM (inactive)
CC1=C(C(=O)OC(C)(C)C)C(c2ccc([N+](=O)[O-])cc2)C(C(=O)OC(C)(C)C)=C(C)N1,27.9 µM (inactive),22.2 µM (inactive),16.6 µM (inactive),20.1 µM (inactive),28.6 µM (inactive),18.5 µM (inactive),24.9 µM (inactive),19.6 µM (inactive),22.2 µM (inactive),20.1 µM (inactive),19.3 µM (inactive),25.5 µM (inactive),19.8 µM (inactive),20.2 µM (inactive),0.187 µM (active),26.9 µM (inactive),20.7 µM (inactive),34.4 µM (inactive),19.8 µM (inactive),–
COc1cc2c(OC)c(c1)CCCC1=CC(=O)C=C(CCC2)C1=O,23.8 µM (inactive),25.5 µM (inactive),31.8 µM (inactive),54.2 µM (inactive),–,41.1 µM (inactive),58.7 µM (inactive),50.2 µM (inactive),41.9 µM (inactive),> 100 µM (inactive),26.7 µM (inactive),15.2 µM (inactive),20.8 µM (inactive),50.2 µM (inactive),3.09 µM (inactive),> 68.4 µM (inactive),21.9 µM (inactive),29.4 µM (inactive),35.6 µM (inactive),6.1 µM (inactive)
N#CC(C#N)=C1SC(=N\c2ccccc2)/C(=N/c2ccccc2)N1c1ccccc1,10.6 µM (inactive),7.8 µM (inactive),5.79 µM (inactive),22 µM (inactive),5.19 µM (inactive),36.6 µM (inactive),58.9 µM (inactive),29.6 µM (inactive),19.2 µM (inactive),44.1 µM (inactive),11 µM (inactive),12.4 µM (inactive),23.9 µM (inactive),25.2 µM (inactive),2.09 µM (inactive),42.9 µM (inactive),> 38.5 µM (inactive),40.2 µM (inactive),10.1 µM (inactive),–
Cc1cc2c(c(C(=O)NCC(=O)O)c1)Oc1c(cc(C)cc1C(=O)NCC(=O)O)S2,> 100 µM (inactive),> 100 µM (inactive),> 100 µM (inactive),> 100 µM (inactive),> 100 µM (inactive),> 100 µM (inactive),> 100 µM (inactive),> 100 µM (inactive),–,> 100 µM (inactive),> 100 µM (inactive),> 100 µM (inactive),> 100 µM (inactive),> 100 µM (inactive),> 100 µM (inactive),> 100 µM (inactive),> 100 µM (inactive),> 100 µM (inactive),> 100 µM (inactive),–
CC(CO)(CO)N1C(=O)C2C3c4ccccc4C(c4ccccc43)C2C1=O (centres undefined),> 100 µM (inactive),45.8 µM (inactive),> 100 µM (inactive),> 100 µM (inactive),> 100 µM (inactive),–,> 100 µM (inactive),> 100 µM (inactive),> 100 µM (inactive),> 100 µM (inactive),–,> 100 µM (inactive),> 100 µM (inactive),> 100 µM (inactive),> 100 µM (inactive),50.4 µM (inactive),> 100 µM (inactive),> 100 µM (inactive),> 100 µM (inactive),> 100 µM (inactive)
O=C1Cc2c([nH]c3ccc(C(=O)O)cc23)-c2ccccc2N1,> 100 µM (inactive),> 100 µM (inactive),> 100 µM (inactive),> 100 µM (inactive),> 100 µM (inactive),–,> 100 µM (inactive),> 100 µM (inactive),> 100 µM (inactive),> 100 µM (inactive),–,> 100 µM (inactive),> 100 µM (inactive),> 100 µM (inactive),> 100 µM (inactive),> 100 µM (inactive),> 100 µM (inactive),> 100 µM (inactive),> 100 µM (inactive),37.5 µM (inactive)
C=C(C)CCN(C(=O)OC(C)(C)C)c1cc(C(C)C)co1,96.2 µM (inactive),> 100 µM (inactive),86.9 µM (inactive),> 100 µM (inactive),28.5 µM (inactive),45.1 µM (inactive),48.4 µM (inactive),54 µM (inactive),–,> 100 µM (inactive),–,95.7 µM (inactive),> 100 µM (inactive),51.4 µM (inactive),25.6 µM (inactive),45 µM (inactive),64.3 µM (inactive),> 100 µM (inactive),> 100 µM (inactive),11.8 µM (inactive)
COc1cc(CNc2nc3ccccc3nc2C(=O)O)cc(OC)c1OC,> 100 µM (inactive),> 100 µM (inactive),74 µM (inactive),> 100 µM (inactive),–,64.1 µM (inactive),> 100 µM (inactive),> 100 µM (inactive),94 µM (inactive),> 100 µM (inactive),94 µM (inactive),> 100 µM (inactive),83 µM (inactive),> 100 µM (inactive),> 100 µM (inactive),> 100 µM (inactive),> 100 µM (inactive),–,> 100 µM (inactive),> 100 µM (inactive)
N=C(N)NCCCC(NC(=O)c1cccc2c(=O)c3ccccc3[nH]c12)C(=O)O (centres undefined),> 100 µM (inactive),> 100 µM (inactive),> 100 µM (inactive),> 100 µM (inactive),> 100 µM (inactive),> 100 µM (inactive),> 100 µM (inactive),> 100 µM (inactive),–,> 100 µM (inactive),–,> 100 µM (inactive),> 100 µM (inactive),> 100 µM (inactive),> 100 µM (inactive),> 100 µM (inactive),> 100 µM (inactive),> 100 µM (inactive),–,> 100 µM (inactive)
O=c1[nH]c2cc3cccnc3c(Cl)c2nc1CBr,16 µM (inactive),15.9 µM (inactive),12.4 µM (inactive),–,–,16.1 µM (inactive),19.3 µM (inactive),15 µM (inactive),19 µM (inactive),21.7 µM (inactive),17.7 µM (inactive),15.6 µM (inactive),14 µM (inactive),21.6 µM (inactive),5.79 µM (inactive),15.6 µM (inactive),15.5 µM (inactive),5.73 µM (inactive),11.2 µM (inactive),20.3 µM (inactive)
